The structures appear in SMILES notation.

Assay [1] deals with solid tumor specimen involving lung cancer metastases. In words: MiCK assay of apoptosis on patient solid tumor specimen (Appendix A report). In kind it is cell-based. The note with it: live cells from solid tumor specimen, apoptosis by OD at 600 nm. An excerpt: Such candidates may be mixed with any appropriate carrier.
Spectrophotometric data may be converted to kinetic units.
Kinetic units may be determined as follows:
KU=(VmaxDrug Treated−Vmaxcontrol)×60X y/(ODcell−ODblank).
Appendix A is a report based on tests conducted on a solid tumor specimen involving lung cancer metastases.

Assay [2] has as its system blood specimen involving acute myeloid leukemia (AML). As to conditions: live cells from blood specimen, apoptosis by OD at 600 nm.
Procedure: In the MiCK assay cancer cells from a patient are placed in a suspension of a given concentration of single cells or small cell clusters and allowed to adjust to conditions in multiple wells of a microtiter plate. […] The optical density of each well is then measured periodically, typically every few minutes, for a period of typically a few days. As a cell undergoes apoptosis-related blebbing, its optical density increases in a nearly linear fashion.
The assay may proceed by selecting an anti-cancer drug candidate and selecting at least one known cancer cell type on which to test the drug. The cancer cells may be suspended as a single-cell suspension in culture medium, such as RPMI. As used herein, a “single cell suspension” is a suspension of one or more cells in a liquid in which the cells are separated as individuals or in small clumps of 50 cells or fewer. […]
Suspended cells may be tested by placing samples in wells of a spectrophotometric plate. The cells may be suspended at any concentration such that during the spectrophotometric measurements of OD, the beam of the plate reader normally passes through the layer of cells. […]
The drug candidate and any control drugs or other control samples may be added to the wells after the adjustment period. […] Although many drug candidates may be water-soluble, drug candidates that are not readily soluble in water may also be tested.

For `CC(=O)O[C@H]1C(=O)[C@@]2(C)[C@H]([C@H](OC(=O)c3ccccc3)[C@]3(O)C[C@H](OC(=O)[C@H](O)[C@@H](NC(=O)c4ccccc4)c4ccccc4)C(C)=C1C3(C)C)[C@]1(OC(C)=O)CO[C@@H]1C[C@@H]2O` [paclitaxel], the “maximum kinetic units (KU)” value in assay [1] turned out to be 7.6 KU.

As to `O=P1(N(CCCl)CCCl)NCCCO1` (centres unmarked) [Cytoxan, cyclophosphamide], in assay [2], the “maximum kinetic units (KU)” value is listed as 7.4 KU.

(Values after US20250198988A1 (priority 2012, published 2025).)
